Measurements: patent EP0772773B1, “Src SH3 BINDING PEPTIDES AND METHODS OF ISOLATING AND USING SAME” (THE UNIVERSITY OF NORTH CAROLINA, priority 1994, dated 2006)
“Also recorded” adds a separate entry of the source.

Assays:
[1] = system: Src SH3-GST; test: Biotinylated synthetic peptide direct binding ELISA on immobilized GST-SH3 fusion; details: 10 µM biotinylated peptide; streptavidin-alkaline phosphatase ELISA, absorbance at 405 nm; Figures 7 and 8
From the text: (§1) The preparation of Src-GST fusion protein was first described by Smith and Johnson, in Gene (1988) 67:31, the disclosure of which is incorporated by reference herein. Briefly, pGEX-derived (Pharmacia, Piscataway, NJ) constructs expressing GST fusion proteins containing the SH3 domains of Src, Grb2, Crk, Abl, or PLCγ were obtained from Dr. Channing Der (University of North Carolina at Chapel Hill.), a construct expressing the SH3 domain of Yes was obtained from Dr. Marius Sudol (Rockefeller University). The use of the pGEX bacterial expression vector for the production of GST-SH3 fusion proteins is well-known to those in the art. See, e.g., Cicchetti, P. et al., in Science (1992) 257:803-806. Briefly, the coding region for a particular SH3 domain can be fused in-frame at the Bam HI site of pGEX-2T. Thus, fusion proteins were prepared as per the manufacturer's instructions, and quantified by Coomassie Blue staining of SDS-polyacrylamide gels. Microtiter wells were coated with 5-20 µg GST-SH3 fusion protein in 100 mM NaHCO3, pH 8.5, blocked with 100 mM NaHCO3 (pH 8.5) 1% BSA, and washed. All washes consisted of five applications of 1XPBS, 0.1% Tween 20, 0.1% BSA (Buffer A). Where appropriate, the amount of protein bound to each well was quantified with an anti-GST antibody-based ELISA (Pharmacia, Piscataway, NJ), and with a GST-binding phage, isolated during the course of this work.
Bacterially expressed Src SH3 glutathione-s-transferase (Src-GST) fusion protein was purified from bacterial lysates using glutathione agarose 4B (Pharmacia), according to the manufacturer's instructions. Bound Src-GST fusion protein was eluted from the glutathione agarose with 10 mM glutathione in PBS. Microtiter wells were then coated with Src-GST fusion protein (1-10 µg/well, in 50 mM NaHCO3, pH 8.5) overnight at 4 °C. To block non-specific binding of phage, 100 µL 1% BSA in 100 mM NaHCO3, pH 8.5, was added to each well and allowed to incubate at room temperature for 1 hour. The wells were then washed five times with 200 µL PBS, 0.1% Tween 20, 0.1% BSA (Buffer A).
(§2) Peptides were obtained from Research Genetics (Birmingham, AL), Chiron Mimotopes (Victoria, Australia), or synthesized by conventional techniques by Dr. J. Mark Carter of cytogen Corporation (Princeton, NJ). Peptide purity was assessed by HPLC and/or mass spectrometry. Biotinylated peptides were synthesized with either a KSGSG (SEQ ID NO:103) or a GSGS (SEQ ID NO:104) peptide linker (a spacer) between the biotin and the N-terminus of the peptide. Binding experiments were performed as above, excepting the use of 10 µM peptide instead of phage. Bound biotinylated peptide was detected with streptavidin conjugated to alkaline phosphatase (Sigma chemical Co., st. Louis, MO). After one hour incubation period at room temperature, the wells were washed, and a solution of 3 mM p-nitrophenyl-phosphate (US Biochemicals, Cleveland, OH) in 50 mM NaCO3 (pH 9.8), and 50 mM MgCl2 was added and color allowed to develop. Signals were read with an ELISA plate reader (Molecular Devices, Menlo Park, CA) at 405 nm wavelength. Binding experiments were performed in triplicate.

[2] = system: Yes SH3-GST; test: as above; details: 10 µM biotinylated peptide, absorbance at 405 nm, Figure 8
From the text: as §1, §2

[3] = system: SH3 domains; test: Relative specificity of peptide binding across SH3 domains derived from different proteins; details: synthetic peptides, compared with 7-mer RPLPPLP, Figures 7 and 8
From the text: as §1, §2

[4] = system: NIH 3T3 fibroblasts; test: Fluorescence staining of fixed fibroblasts with biotinylated peptides and streptavidin-Cy3; type: cell-based; details: fixed NIH 3T3 fibroblasts; biotinylated peptide, streptavidin-Cy3; Figure 11
Description: Thus, NIH 3T3 fibroblasts were cultured in vitro on glass coverslips coated with fibronectin. After two days of growth at 37 °C, the cells were fixed for one hour at room temperature in the presence of 2% paraformaldehyde (pH 7.5). The coverslips were washed with PBS-0.1% Tween 20 several times to remove the fixative. Next, the coverslips were dipped into acetone (chilled at -20 °C) for approximately 20 seconds and allowed to air-dry. The coverslips were washed again with PBS-0.1% Tween 20, containing BSA (1 mg/mL), and incubated for 2 hours at room temperature with different biotinylated peptides in PBS-0.1% Tween 20. The coverslips were washed and then incubated with 1 mg/mL streptavidin-Cy3 (Jackson Immunoresearch Co., West Grove, PA) for 1 hour at room temperature. Finally, the coverslips were washed in PBS-0.1% Tween 20, mounted in a glycerol solution on a glass slide, and viewed with a Nikon Optiphot epifluorescence microscope and a 60x oil immersion lens.

[5] = system: SH3 domains; test: Relative specificity of peptide binding across SH3 domains derived from different proteins; details: not tested
[6] = biological target: Src and PI-3' Kinase SH3 domains; details: Yu et al. / Chen et al., biased library peptides; read-out: binding affinity; cited from earlier work
[7] = system: Grb2-GST; test: Biotinylated synthetic peptide direct binding ELISA on immobilized GST-SH3 fusion; details: 10 µM biotinylated peptide, absorbance at 405 nm, Figure 8
From the text: as §1, §2

[8] = system: PLCγ1 SH2SH3-GST; test: as above; details: 10 µM biotinylated peptide, absorbance at 405 nm, Figure 8
From the text: as §1, §2

RSTPRPLPPLPTTR [representative consensus motif with R8C.YES3.5 flanking residues]
binding to Src SH3-GST [1]: much more avidly than the 7-mer; also recorded: strong specific binding affinity | binding to Yes SH3-GST [2]: much more avidly than the 7-mer | relative binding affinity / specificity for SH3 domains [3]: highly specific for SH3 domain of Src, Yes, and other Src-related proteins | fluorescence staining / cellular localization [4]: localize within cellular compartments thought to contain Src or Src-related proteins

biotin-spacer-RSTPRPLPPLPTTR
fluorescence staining / cellular localization [4]: bright display of fluorescence activity

GILAPPVPPRNTR
binding to Src SH3-GST [1]: much more avidly than the 7-mer | binding to Yes SH3-GST [2]: much more avidly than the 7-mer | relative binding affinity / specificity for SH3 domains [3]: binds generically to a broad range of SH3 domains; also recorded: avid binding affinity to SH3 domains relative to the 7-mer; also recorded: more generic SH3 domain-binding characteristics | fluorescence staining / cellular localization [4]: localize within cellular compartments thought to contain Src or Src-related proteins

GTVEPVPPPVPPRRRPESA [reference compound]
binding to Src SH3-GST [1]: less well than the library-derived peptides

RSTPAPPVPPRTTR
surmised binding to a variety of SH3 domains [5]: strong but generic binding

KISPPTPKPKPPRPLPV [reference compound]
binding to Src SH3-GST [1]: less well than the library-derived peptides

biotin-spacer-VLKRPLPIPPVTR
fluorescence staining / cellular localization [4]: bright display of fluorescence activity

biotin-spacer-GILAPPVPPRNTR
fluorescence staining / cellular localization [4]: bright display of fluorescence activity

RKLPPRPRR ["composite" peptide of the literature]
Kd [6]: 7.6 µM

ANPSPATRPLPTR
relative binding affinity / specificity for SH3 domains [3]: binding affinities comparable to the core consensus sequence; also recorded: avid binding affinity to SH3 domains relative to the 7-mer | relative binding affinity / specificity for SH3 domains ([3]; listed as AHPSPATRPLPTR): Src family specificity similar to GPHRRLPPTPATR

GPHRRLPPTPATR
binding to Src SH3-GST [1]: much more avidly than the 7-mer | binding to Grb2 SH3 domain [7]: little affinity | binding to PLCγ SH3 domain [8]: little affinity | binding to Yes SH3-GST [2]: much more avidly than the 7-mer | relative binding affinity / specificity for SH3 domains [3]: specific to Src family SH3 domains | relative binding affinity / specificity for SH3 domains ([3]; listed as GPHRRLPPPTPATR): avid binding affinity to SH3 domains relative to the 7-mer

RSTPRPLPMLPTTR
binding to Src SH3-GST [1]: much more avidly than the 7-mer; also recorded: strong specific binding affinity | binding to Yes SH3-GST [2]: much more avidly than the 7-mer | relative binding affinity / specificity for SH3 domains [3]: highly specific for SH3 domain of Src, Yes, and other Src-related proteins

biotin-spacer-LAPPKPPLPEGEV [reference compound]
fluorescence staining / cellular localization [4]: relatively "dark" features

RPLPPLP
binding to Src SH3-GST [1]: only weakly | relative binding affinity / specificity for SH3 domains [3]: less effective in binding to target SH3 domains
